Our source for the IC50 values is the Kinase Knowledgebase extract (Sharma et al. 2016).

As usually defined, the IC50 is the concentration that inhibits the measured activity by half. High values mean lower potency, low ones higher potency.

The target of this assay is MAPK14;MAPK11;MAPK12 (human) (UniProt Q16539). Put plainly: Inhibition of p38 Kinase Activity.

Compound `COc1ncc(CN2CC[C@@H](Nc3nc(Nc4cc(C(N)=O)ccc4C)nc(N(C)CC(C)C)n3)C2)c(OC)n1` showed an IC50 below 1000 nM.

As to `CCc1ccc(C(N)=O)cc1Nc1nc(NCC(C)(C)C)nc(N[C@H]2CCNC2)n1`, the half-inhibitory concentration (IC50) was below 1000 nM.

The compound `Cc1ccc(C(=O)NCCc2ccccc2)cc1Nc1nc(N[C@H]2CCNC2)nc(N(C)CC(C)(C)C)n1` returned a half-maximal inhibitory concentration (IC50) below 1000 nM.

The compound `CC1(C)C2CCC(CNc3nc(Nc4ccc5ncsc5c4)nc(N4CCN(C(=O)CCC(=O)O)CC4)n3)C1C2` (configuration not stated) came in with an IC50 below 10000 nM.

`Cc1ccc(C(N)=O)cc1Nc1nc(NC2CCCNC2)nc(N(C)CC(C)(C)C)n1` (configuration not stated) displayed an IC50 below 1000 nM.

Regarding `Cc1ccc(C(N)=O)cc1Nc1nc(NCCCn2ccnc2)nc(NC2CCCC2)n1`, the half-maximal inhibitory concentration (IC50) is below 1000 nM.

In the case of `CONC(=O)c1ccc(C)c(Nc2nc(NCCc3ccccn3)nc(N(C)CC(C)(C)C)n2)c1`, the IC50 is below 1000 nM.

Compound `CC(C)OCCNc1cc(N2CCNCC2)nc(-n2cnc3ccccc32)n1` displayed a half-inhibitory concentration (IC50) below 10000 nM.

The compound `Cc1ccc(C(N)=O)cc1Nc1nc(N[C@@H]2CCN(C(C)CO)C2)nc(N(C)CC(C)(C)C)n1` (some centres not stated) had a concentration for half-maximal inhibition (IC50) below 1000 nM.

With `CC(=O)N1CCN(c2nc(NC[C@@H]3CC[C@H]4C[C@@H]3C4(C)C)nc(Nc3ccc4ncsc4c3)n2)CC1`, the IC50 was below 10000 nM.

For `Clc1nc(Nc2ccc3ncsc3c2)nc(N2CCC3CCCCC3C2)n1` (configuration not stated), the IC50 was below 10000 nM.

Turning to `Cc1ccc(C(N)=O)cc1Nc1nc(NC[C@H]2CCCN2)nc(N(C)CC2CCCC2)n1`, the half-maximal inhibitory concentration (IC50) was below 1000 nM.

In turn, `Cn1ccc2cc(Nc3nc(Cl)nc(NC[C@@H]4CC[C@H]5C[C@@H]4C5(C)C)n3)ccc21` had a 50% inhibitory concentration (IC50) below 10000 nM.

Consider `CONC(=O)c1ccc(C)c(Nc2nc(NCc3ccccn3)nc(N(C)CC(C)(C)C)n2)c1`, for which the IC50 is below 1000 nM.

On to `Cc1ccc(C(N)=O)cc1Nc1nc(CCC(C)C)nc(N[C@H]2CCNC2)n1`, for which the IC50 is below 1000 nM.

`CNC(=O)c1ccc(C)c(Nc2nc(N[C@H]3CCN(Cc4ccccc4)C3)nc(N(C)CC(C)C)n2)c1` had a concentration for half-maximal inhibition (IC50) below 1000 nM.

`Cc1ccc(C(N)=O)cc1Nc1nc(N[C@H]2CCN(Cc3ccc(O)cc3)C2)nc(N(C)CC(C)C)n1` registered an IC50 below 1000 nM.

`CCOC(=O)Nc1ccc(C)c(Nc2nc(N[C@H]3CCNC3)nc(N(C)CC(C)(C)C)n2)c1` registered an IC50 below 1000 nM.

Compound `CONC(=O)c1ccc(C)c(Nc2nc(N(C)C)nc(N(C)CC(C)(C)C)n2)c1` yielded a half-inhibitory concentration (IC50) below 1000 nM.

The compound `CC(=O)NCCNc1nc(Nc2cc(C(N)=O)ccc2C)nc(N(C)CC(C)(C)C)n1` displayed a half-inhibitory concentration (IC50) below 1000 nM.

For the compound `Cc1ccc(C(N)=O)cc1Nc1nc(N[C@H]2CCN(Cc3ccccc3)C2)nc(N(C)CC(C)(C)C)n1`, the IC50 was below 1000 nM.

Regarding `CNC1CCN(c2cc(NCCOC(C)C)nc(-n3cnc4ccc(C)cc43)n2)C1` (configuration not stated), the IC50 is below 10000 nM.

On to `C=CCN1CC[C@H](Nc2nc(Nc3cc(C(=O)NCC)ccc3C)nc(N(C)CC3CCCC3)n2)C1`, for which the IC50 was below 1000 nM.

For the compound `Cc1ccc(C(N)=O)cc1Nc1nc(NC2CCCCC2)nc(N(C)CC(C)(C)C)n1`, the IC50 was below 1000 nM.

With `CCONC(=O)c1ccc(C)c(Nc2nc(N[C@@H]3CCNC3)nc(N(C)CC(C)C(F)(F)F)n2)c1` (some centres not stated), the IC50 was below 1000 nM.

The compound `CC(CNc1nc(Nc2ccc3ncsc3c2)nc(N2CC3CC2CN3C(=O)c2cccnc2)n1)c1ccccc1` (configuration not stated) showed a 50% inhibitory concentration (IC50) below 10000 nM.

As for `Cc1ccc(C(N)=O)cc1Sc1nc(N(C)CC(C)(C)C)nc(N2CCCN(C)CC2)n1`, the IC50 is below 30000 nM.

Take `Cc1ccc(C(N)=O)cc1Nc1nc(NC2CCCC2)nc(N[C@@H]2CCNC2)n1`: the IC50 is below 1000 nM.

`CCCc1ccc(C(N)=O)cc1Nc1nc(N[C@H]2CCNC2)nc(N(C)CC(C)(C)C)n1` displayed a 50% inhibitory concentration (IC50) below 1000 nM.

In turn, `Cc1ccc(C(N)=O)cc1Nc1nc(N[C@@H]2CCNC2)nc(N2CCc3ccccc3C2)n1` registered an IC50 below 1000 nM.

Take `CC(CN(C)c1nc(Nc2ccc3ncsc3c2)nc(N(C)C)n1)c1ccccc1` (configuration not stated): the IC50 was below 10000 nM.

For the compound `Cc1ccc(COC(=O)C(F)(F)F)cc1Nc1nc(N[C@H]2CCNC2)nc(N(C)CC(C)C)n1`, the IC50 is below 1000 nM.

In turn, `C[C@H](CNc1nc(Cl)nc(Nc2ccc3ncsc3c2)n1)c1ccccc1` had an IC50 below 10000 nM.

Regarding `CCCNC(=O)N1CC[C@@H](Nc2nc(Nc3cc(C(=O)NOC)ccc3C)nc(N(C)CC(C)(C)C)n2)C1`, the IC50 was below 1000 nM.

Take `Cc1ccc(C(N)=O)cc1Nc1nc(N[C@H]2CCN(C(C)c3ccccn3)C2)nc(N(C)CC(C)C)n1` (some centres not stated): the half-maximal inhibitory concentration (IC50) is below 1000 nM.

Compound `Cc1ccc(C(N)=O)cc1Nc1nc(N[C@H]2CCN(Cc3ccc(C(C)C)cc3)C2)nc(N(C)CC(C)C)n1` came in with an IC50 below 1000 nM.

On to `CCOC(=O)N1CCC(N(C)c2nc(Nc3cc(C(N)=O)ccc3C)nc(N(C)CC(C)C)n2)C1` (configuration not stated), for which the IC50 was below 1000 nM.

`CN(CC(C)(C)C)c1nc(N[C@@H]2CCNC2)nc(Sc2cc(C(N)=O)ccc2F)n1` came in with an IC50 below 30000 nM.

Consider `Cc1ccc(C(N)=O)cc1Nc1nc(N[C@@H]2CCN(C(C)C)C2)nc(N(C)CC(C)(C)C)n1`, for which the IC50 is below 1000 nM.

`Cc1ccc(C(=O)NC#N)cc1Nc1nc(N[C@H]2CCNC2)nc(N(C)CC(C)(C)C)n1`: the half-inhibitory concentration (IC50) is below 1000 nM.

In turn, `CNC(=O)c1ccc(C)c(Sc2nc(N[C@@H]3CCNC3)nc(N(C)CC(C)(C)C)n2)c1` gave an IC50 below 30000 nM.

For the compound `Cc1ccc(C(N)=O)cc1Nc1nc(NCCc2ccc(F)cc2)nc(N[C@H]2CCNC2)n1`, the concentration for half-maximal inhibition (IC50) is below 1000 nM.

Compound `CCONC(=O)c1ccc(C)c(Nc2nc(NCCO)nc(N(C)CC(C)(C)C)n2)c1` had an IC50 below 1000 nM.

As for `Cc1ccc(C(N)=O)cc1Nc1nc(N[C@@H]2CCCC[C@H]2N)nc(N(C)CC(C)C)n1`, the half-inhibitory concentration (IC50) is below 1000 nM.

In the case of `COCCCN1CCC(Nc2nc(Nc3cc(C(N)=O)ccc3C)nc(N(C)CC(C)C)n2)C1` (configuration not stated), the IC50 was below 1000 nM.

For `Cc1ccc(C(=O)Nc2cccc(N(C)C)c2)cc1Nc1nc(N[C@H]2CCNC2)nc(N(C)CC(C)C)n1`, the IC50 was below 1000 nM.

As for `CCONC(=O)c1ccc(C)c(Nc2nc(N[C@H]3CCNC3)nc(N(C)CC(C)(C)C)n2)c1`, the IC50 was below 1000 nM.

For `CCOC(=O)Nc1ccc(C)c(Nc2nc(NCCN3CCCC3)nc(N(C)CC(C)(C)C)n2)c1`, the IC50 was below 1000 nM.

`CN(CCN(C)c1nc(NCC2CCC3CC2C3(C)C)nc(Nc2ccc3ncccc3c2)n1)C(=O)CCC(=O)O` (configuration not stated) had an IC50 below 10000 nM.

Consider `Cc1ccc(C(N)=O)cc1Nc1nc(NC2CCN(Cc3ccccc3)C2)nc(N(C)CC(C)C)n1` (configuration not stated), for which the IC50 was below 1000 nM.

`CCCCN(C)c1nc(Nc2cc(C(N)=O)ccc2C)nc(N[C@H]2CCNC2)n1` came in with a half-maximal inhibitory concentration (IC50) below 1000 nM.

Compound `Cc1ccc(C(N)=O)cc1Nc1nc(N[C@H]2CCNC2)cc(N(C)CC(C)(C)C)n1` yielded an IC50 below 1000 nM.

The compound `Cc1ccc(C(N)=O)cc1Nc1nc(N[C@@H]2CCNC2)nc(OC[C@@H]2CC[C@H]3C[C@H]2C3(C)C)n1` yielded an IC50 below 1000 nM.

`Cc1ccc(C(N)=O)cc1Nc1nc(NC2CCN(C(C)(C)C)C2)nc(N(C)CC(C)C)n1` (configuration not stated) gave a concentration for half-maximal inhibition (IC50) below 1000 nM.

In the case of `NC(=O)c1ccc(N)c(Nc2nc(NC3CCNC3)nc(N3CCCC3)n2)c1` (configuration not stated), the 50% inhibitory concentration (IC50) was below 1000 nM.

Compound `O=C(O)CCC(=O)N1CCN(c2nc(NCC3CCCCC3)nc(Nc3ccc4ncsc4c3)n2)CC1` registered a concentration for half-maximal inhibition (IC50) below 10000 nM.

As for `Cc1ccc(C(N)=O)cc1Nc1nc(N[C@@H]2CCNC2)nc(N(C)CC2(C)CCCC2)n1`, the IC50 was below 1000 nM.

`Cc1cccc(NC(=O)c2ccc(C)c(Nc3nc(N[C@H]4CCNC4)nc(N(C)CC(C)(C)C)n3)c2)c1` registered a half-maximal inhibitory concentration (IC50) below 1000 nM.

In turn, `Cc1ccc(C(N)=O)cc1Nc1nc(NC2CCNC2)nc(NC2CCN(Cc3ccccc3)C2)n1` (configuration not stated) yielded an IC50 below 1000 nM.

`CNCCCN(C)c1nc(NC[C@@H]2CC[C@H]3C[C@@H]2C3(C)C)nc(Nc2ccc3ncsc3c2)n1` displayed an IC50 below 10000 nM.

Take `CCCCC(C)c1nc(Nc2cc(C(N)=O)ccc2C)nc(N[C@H]2CCNC2)n1` (some centres not stated): the 50% inhibitory concentration (IC50) is below 1000 nM.

Compound `Cc1ccc(C(N)=O)cc1Nc1nc(N[C@H]2CCN(C(C)c3ccccc3)C2)nc(N(C)CC(C)C)n1` (some centres not stated) yielded a half-inhibitory concentration (IC50) below 1000 nM.

Consider `CN(CC(C)(C)C)c1nc(Cc2cccc(C(N)=O)c2)nc(N[C@H]2CCNC2)n1`, for which the IC50 is below 1000 nM.

Consider `CONC(=O)c1ccc(C)c(Nc2nc(N(C)CC(C)(C)C)nc(N3CCNCC3)n2)c1`, for which the half-inhibitory concentration (IC50) is below 1000 nM.

Compound `CC(CNc1nc(Nc2ccc3ncsc3c2)nc(N2CCN(C(=N)N)CC2)n1)c1ccccc1` (configuration not stated) registered a half-maximal inhibitory concentration (IC50) below 10000 nM.

Turning to `CCCCOc1nc(Nc2cc(C(N)=O)ccc2C)nc(NC2CCCC2)n1`, the half-maximal inhibitory concentration (IC50) is below 1000 nM.

Consider `CC(CNc1nc(Cl)nc(Nc2ccc3ncsc3c2)n1)c1ccccc1` (configuration not stated), for which the 50% inhibitory concentration (IC50) was below 10000 nM.

Turning to `Cc1ccc(C(N)=O)cc1Nc1nc(NCC(C)C)nc(N[C@H]2CCNC2)n1`, the half-inhibitory concentration (IC50) was below 1000 nM.

Consider `Cc1cccc(CN2CC[C@H](Nc3nc(Nc4cc(C(N)=O)ccc4C)nc(N(C)CC(C)C)n3)C2)c1`, for which the 50% inhibitory concentration (IC50) was below 1000 nM.

Consider `Cc1ccc(C(N)=O)cc1Nc1nc(NC2CCNC2)nc(N(C)CC(C)(C)C)n1` (configuration not stated), for which the half-inhibitory concentration (IC50) was below 1000 nM.

Consider `Clc1cccc(Nc2nc(Cl)nc(Nc3ccc4ncsc4c3)n2)c1`, for which the half-inhibitory concentration (IC50) is below 10000 nM.

As to `CC(CNc1nc(Nc2ccc3ncsc3c2)nc(N2CCN(C(=O)C3CCOC3)CC2)n1)c1ccccc1` (configuration not stated), the IC50 is below 10000 nM.

For the compound `CC(=O)N1CC2CC1CN2c1nc(NCC(C)c2ccccc2)nc(Nc2ccc3ncsc3c2)n1` (configuration not stated), the IC50 was below 10000 nM.

For the compound `COCC(=O)N1CCN(c2nc(NCC(C)c3ccccc3)nc(Nc3ccc4ncsc4c3)n2)CC1` (configuration not stated), the IC50 was below 10000 nM.

On to `Cc1cc2c(cc1Nc1nc(N[C@H]3CCNC3)nc(N(C)CC(C)(C)C)n1)C(=O)NC2`, for which the IC50 was below 1000 nM.

`CC(=O)N1CCN(c2nc(NCC(C)c3ccccc3)nc(Nc3ccc4ncsc4c3)n2)CC1` (configuration not stated) showed a concentration for half-maximal inhibition (IC50) below 10000 nM.

The compound `Cc1ccc(C(N)=O)cc1Nc1nc(N[C@H]2CCN(C3CCCC3)C2)nc(N(C)CC(C)(C)C)n1` had a concentration for half-maximal inhibition (IC50) below 1000 nM.

Turning to `Cc1ccc(C(N)=O)cc1Nc1nc(NC2CCN(Cc3ccc(C(F)(F)F)cc3)C2)nc(N(C)CC(C)C)n1` (configuration not stated), the IC50 was below 1000 nM.

The compound `CONC(=O)c1ccc(C)c(Nc2nc(NCc3cccc(F)c3)nc(N(C)CC(C)(C)C)n2)c1` displayed a half-inhibitory concentration (IC50) below 1000 nM.

Take `Cc1ccc(C(N)=O)cc1Nc1nc(NC2CCCC2)nc(NC2CCN(Cc3ccccc3)C2)n1` (configuration not stated): the 50% inhibitory concentration (IC50) was below 1000 nM.

Take `Cc1ccc(C(N)=O)cc1Nc1nc(N[C@H]2CCNC2)nc(N(C)C[C@H](C)c2ccccc2)n1`: the IC50 is below 1000 nM.

Compound `c1nc2ccc(Nc3nc(NCC4CCCO4)nc(NC4CC4)n3)cc2s1` (configuration not stated) displayed an IC50 below 10000 nM.
